Patent US20080064675A1, “Use of Aromatic flavoring agents with high melting point as solubilizing agents” (priority 2005, published 2008)

Experiment: trans-anethole and vanillin in compositions of modafinil (Example 3)
Type: physicochemical
Method: 200 mg of modafinil were weighted in two test tubes (A and B). 2 mL of benzyl alcohol were added to test tube A and 200 mg of vanillin, 2 mL of anethole and 2 mL of benzyl alcohol were added to test tube B. The test tubes were stirred and heated to 60° C. Further, the tubes were cooled at room temperature.

NC(=O)C[S+]([O-])C(c1ccccc1)c1ccccc1 (centres unmarked) [modafinil]
crystallization on cooling at room temperature (tube A: 200 mg in 2 mL benzyl alcohol): promptly crystallized
crystallization after cooling at room temperature (tube B: 200 mg vanillin, 2 mL anethole and 2 mL benzyl alcohol, 12 hours after cooling): no crystals were noted
